Measurements as given in paper PMC8134075, “Structure of mouse cytosolic sulfotransferase SULT2A8 provides insight into sulfonation of 7α-hydroxyl bile acids” (Journal of Lipid Research, 2021).
Substitutions are numbered along the chain they refer to. Blank lines part the entries; values can stand above or below the molecule they belong to.

Key:
SULT2A8 [1] = molecular target: T1, SULT2A8 (Mus musculus, UniProt Q8BGL3); experiment: X-ray crystal structure; assay type: binding; conditions: pH 5.1
T1 construct: truncated, residues 4-282 (first three residues removed), N-terminal GST tag cleaved with PreScission protease (pGEX-6P-3); E. coli BL21(DE3), purified from inclusion bodies; homodimer in crystal
T1 sequence (Q8BGL3 4-282): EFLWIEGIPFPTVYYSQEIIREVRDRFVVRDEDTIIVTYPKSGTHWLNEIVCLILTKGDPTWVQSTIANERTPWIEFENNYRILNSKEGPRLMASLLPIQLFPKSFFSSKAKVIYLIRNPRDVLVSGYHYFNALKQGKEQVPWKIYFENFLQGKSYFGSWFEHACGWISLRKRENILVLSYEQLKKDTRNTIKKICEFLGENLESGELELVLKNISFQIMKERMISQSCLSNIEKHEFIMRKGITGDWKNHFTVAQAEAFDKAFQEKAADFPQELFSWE

SULT2A8 [2] = molecular target: T1, SULT2A8; experiment: thermal shift assay (Thermofluor); assay type: binding; conditions: 20 mM Hepes pH 8.0, 150 mM NaCl, 4 mM DTT, ligand 250 mM [sic]
SULT2A8 [3] = molecular target: T1, SULT2A8; experiment: HPLC of PAP generated; assay type: biochemical; conditions: 50 μM PAPS, 100 μM bile acid, 2.5 mM MgCl2, pH 5.5 or 7.5, 37°C
SULT2A8 [4] = molecular target: T2, SULT2A8 (Mus musculus, UniProt Q8BGL3, L99T); experiment: thermal shift assay (Thermofluor); assay type: binding; conditions: 20 mM Hepes pH 8.0, 150 mM NaCl, 4 mM DTT; ligand 250 mM [sic]
T2 construct: truncated, residues 4-282 (first three residues removed), N-terminal GST tag cleaved with PreScission protease (pGEX-6P-3); E. coli BL21(DE3), purified from inclusion bodies; homodimer in crystal
T2 sequence (Q8BGL3 4-282 L99T): T1 sequence (Q8BGL3 4-282) with L96T

SULT2A8 [5] = molecular target: T3, SULT2A8 (Mus musculus, UniProt Q8BGL3, N72W); experiment: thermal shift assay (Thermofluor); assay type: binding; conditions: 20 mM Hepes pH 8.0, 150 mM NaCl, 4 mM DTT; ligand 250 mM [sic]
T3 construct: truncated, residues 4-282 (first three residues removed), N-terminal GST tag cleaved with PreScission protease (pGEX-6P-3); E. coli BL21(DE3), purified from inclusion bodies; homodimer in crystal
T3 sequence (Q8BGL3 4-282 N72W): T1 sequence (Q8BGL3 4-282) with N69W

SULT2A8 [6] = molecular target: T4, SULT2A8 (Mus musculus, UniProt Q8BGL3, H48T); experiment: thermal shift assay (Thermofluor); assay type: binding; conditions: 20 mM Hepes pH 8.0, 150 mM NaCl, 4 mM DTT; ligand 250 mM [sic]
T4 construct: truncated, residues 4-282 (first three residues removed), N-terminal GST tag cleaved with PreScission protease (pGEX-6P-3); E. coli BL21(DE3), purified from inclusion bodies; homodimer in crystal
T4 sequence (Q8BGL3 4-282 H48T): T1 sequence (Q8BGL3 4-282) with H45T

SULT2A8 [7] = molecular target: T5, SULT2A8 (Mus musculus, UniProt Q8BGL3, L99V); experiment: thermal shift assay (Thermofluor); assay type: binding; conditions: 20 mM Hepes pH 8.0, 150 mM NaCl, 4 mM DTT; ligand 250 mM [sic]
T5 construct: truncated, residues 4-282 (first three residues removed), N-terminal GST tag cleaved with PreScission protease (pGEX-6P-3); E. coli BL21(DE3), purified from inclusion bodies; homodimer in crystal
T5 sequence (Q8BGL3 4-282 L99V): T1 sequence (Q8BGL3 4-282) with L96V

[8] = molecular target: the molecule itself; experiment: crystal structure; SULT2A8 (4-282) cocrystallised with PAP and CA, pH 5.1, 16°C; space group P4(2), two copies per asymmetric unit; dimerization read from analysis of the crystal packing

Molecule: C[C@H](CCC(=O)O)[C@H]1CC[C@H]2[C@@H]3[C@H](O)C[C@@H]4C[C@H](O)CC[C@]4(C)[C@H]3C[C@H](O)[C@]12C [CA]
X-ray crystal structure, 2.5 A (SULT2A8 [1]; co-crystal with PAP, substrate pocket): SULT2A8 was cocrystallized with PAP and its native substrate CA

Molecule: C[C@H](CCC(=O)O)[C@H]1CC[C@H]2[C@@H]3[C@H](O)C[C@@H]4C[C@H](O)CC[C@]4(C)[C@H]3CC[C@]12C [Na CDC]
Tm (SULT2A8 [2]): Na CDC, or sodium taurochenodeoxycholate) were added

Molecule: C[C@H](CCC(=O)O)[C@H]1CC[C@H]2[C@@H]3[C@H](O)C[C@@H]4C[C@H](O)CC[C@]4(C)[C@H]3C[C@H](O)[C@]12C [Na C]
Tm (SULT2A8 [2]; with PAP): Tm values were further increased when both PAP and native substrates (Na C, Na T-C

Molecule: C[C@H](CCC(=O)NCCS(=O)(=O)O)[C@H]1CC[C@H]2[C@@H]3[C@H](O)C[C@@H]4C[C@H](O)CC[C@]4(C)[C@H]3CC[C@]12C [Na T-CDC]
Tm (SULT2A8 [2]): Na CDC, or sodium taurochenodeoxycholate) were added

Molecule: Nc1ncnc2c1ncn2[C@@H]1O[C@H](COP(=O)(O)OS(=O)(=O)O)[C@@H](OP(=O)(O)O)[C@H]1O [PAPS]
HPLC of PAP generated (SULT2A8 [3]): quantification of PAP generated from the sulfonation of substrates

Tm (SULT2A8 [2]): from 54 to 61 °C
Molecule: Nc1ncnc2c1ncn2[C@@H]1O[C@H](COP(=O)(O)O)[C@@H](OP(=O)(O)O)[C@H]1O [PAP]
Tm (SULT2A8 [4]): Tm values of these mutants were significantly increased when PAP was included | Tm (SULT2A8 [5]): the Tm value of N72W was increased when PAP was added | Tm (SULT2A8 [6]): Tm values of these mutants were significantly increased when PAP was included | X-ray crystal structure, 2.5 A (SULT2A8 [1]; co-crystal with cholic acid, PAPS binding pocket, cofactor product/analogue): SULT2A8 protein was cocrystallized with PAP and CA | Tm (SULT2A8 [7]): Tm values of these mutants were significantly increased when PAP was included

B1: mouse cytosolic sulfotransferase SULT2A8 (residues 4-282) (enzyme, UniProt Q8BGL3 4-282, looked up)
chain: T1 sequence (Q8BGL3 4-282)
notes: Sulfotransferase 2A8 (SULT2A8), mouse, residues 4-282 (first three N-terminal residues removed), cloned in pGEX-6P-3 from pRSET-SULT2A8; Crystallised with the small molecules PAP and cholic acid; two copies per asymmetric unit; also called mSULT2A8; SULT2A8 WT; source: E. coli BL21(DE3), purified from inclusion bodies (Glutathione Sepharose 4B, PreScission cleavage, Superdex 75); not shown: GST, …
binding result [8]: binds
